Measurements published in patent US7211577B2, “Water-soluble phenylpyridazine derivative and medicine containing the same” (Kowa Co., Ltd., priority 2003, dated 2007).

Assay: Water solubility test
Format: physicochemical
Conditions: purified water, from amount of water required for dissolution
Procedure: Experiment 2 (Water Solubility Test) Testing Method
Each sample compound was weighed in the amount shown in Table 3, to which purified water was added in 0.05 mL aliquots. The solubility (%) of the compound was determined based on the amount of water required for its dissolution.

Compound | Solubility (%)
COc1ccc(-c2cc(CN3CCNCC3)c(=O)n(CC3CC3)n2)cc1F.Cl.Cl [Example 21, 2-cyclopropylmethyl-6-(3-fluoro-4-methoxyphenyl)-4-(1-piperazinyl)methyl-2H-pyridazin-3-one dihydrochloride] | >20%
Cc1cc(-c2cc(CN(C)C)c(=O)n(CC(C)C)n2)ccc1F.Cl [Example 89, 4-dimethylaminomethyl-6-(4-fluoro-3-methylphenyl)-2-isobutyl-2H-pyridazin-3-one hydrochloride] | >20%
COc1ccc(-c2cc(CN)c(=O)n(CC3CCCC3)n2)cc1F.Cl [Example 188, 4-aminomethyl-2-cyclopentylmethyl-6-(3-fluoro-4-methoxyphenyl)-2H-pyridazin-3-one hydrochloride] | 0.08%
COc1ccc(-c2cc(CN)c(=O)n(Cc3ccc(Cl)cc3)n2)cc1F.Cl [Example 206, 4-aminomethyl-2-(4-chlorobenzyl)-6-(3-fluoro-4-methoxyphenyl)-2H-pyridazin-3-one hydrochloride] | 0.06%
COc1ccc(-c2cc(CCCN3CCNCC3)c(=O)n(CC3CC3)n2)cc1F.Cl.Cl [Example 214, 2-cyclopropylmethyl-6-(3-fluoro-4-methoxyphenyl)-4-[3-(1-piperazinyl)propyl]-2H-pyridazin-3-one dihydrochloride] | 10%
COc1ccc(-c2cc(CCCN)c(=O)n(CC3CC3)n2)cc1F.Cl [Example 217, 4-(3-aminopropyl)-2-cyclopropylmethyl-6-(3-fluoro-4-methoxyphenyl)-2H-pyridazin-3-one hydrochloride] | 10%

Next, values leading:

Solubility (%) | Compound
1% | COc1ccc(-c2cc(CN3CCN(Cc4ccccc4)CC3)c(=O)n(CC3CC3)n2)cc1F.Cl.Cl [Example 18, 4-(4-benzyl-1-piperazinyl)methyl-2-cyclopropylmethyl-6-(3-fluoro-4-methoxyphenyl)-2H-pyridazin-3-one dihydrochloride]
4% | Cc1ccc(-c2cc(CN(C)C)c(=O)n(CC(C)C)n2)cc1.Cl [Example 45, 4-dimethylaminomethyl-2-isobutyl-6-(4-methylphenyl)-2H-pyridazin-3-one hydrochloride]
>20% | CCN(CC)Cc1cc(-c2ccc(C)cc2)nn(CC(C)C)c1=O.Cl [Example 47, 4-diethylaminomethyl-2-isobutyl-6-(4-methylphenyl)-2H-pyridazin-3-one hydrochloride]
0.2% | COc1ccc(-c2cc(CN)c(=O)n(Cc3ccc(F)cc3)n2)cc1F.Cl [Example 195, 4-aminomethyl-2-(4-fluorobenzyl)-6-(3-fluoro-4-methoxyphenyl)-2H-pyridazin-3-one hydrochloride]

Assay: not given
Conditions: not given

Compound | melting point
CC(C)Cn1nc(-c2ccc(F)c(F)c2)cc(CN(C)C)c1=O.Cl | 226.5 to 227.7 °C
Cc1cc(-c2cc(CN3CCNCC3)c(=O)n(CC=Cc3ccc(Cl)cc3)n2)ccc1F.Cl.Cl | 186.7 to 197 °C (dec.)
CN1CCN(Cc2cc(-c3ccc([S+](C)[O-])cc3)nn(CC3CC3)c2=O)CC1.Cl.Cl (centres unmarked) | 80 °C (dec.)
COc1ccc(-c2cc(CN3CCN(C)CC3)c(=O)n(CC(C)C)n2)cc1Cl.Cl.Cl | 235.8 to 236.7 °C
COc1ccc(-c2cc(CN3CCNCC3)c(=O)n(CC3CC3)n2)cc1F [Example 20, 2-cyclopropylmethyl-6-(3-fluoro-4-methoxyphenyl)-4-(1-piperazinyl)methyl-2H-pyridazin-3-one] | 111.5 to 118 °C
Cc1ccc(-c2cc(CNC(CO)CO)c(=O)n(CC(C)C)n2)cc1 [Example 52, 4-(1,3-dihydroxypropan-2-yl)aminomethyl-2-isobutyl-6-(4-methylphenyl)-2H-pyridazin-3-one] | 134.1 to 135.2 °C
C#CCNCc1cc(-c2ccc(SC)cc2)nn(CC(C)C)c1=O.Cl [Example 163, 2-isobutyl-6-[4-(methylthio)phenyl]-4-propargylaminomethyl-2H-pyridazin-3-one hydrochloride] | 197.5 to 198.4 °C
COc1ccc(-c2cc(CN3CCN(C)CC3)c(=O)n(Cc3ccc(F)cc3)n2)cc1F [Example 189, 2-(4-fluorobenzyl)-6-(3-fluoro-4-methoxyphenyl)-4-(4-methyl-1-piperazinyl)methyl-2H-pyridazin-3-one] | 112 to 113 °C
COc1ccc(-c2cc(CN(C)C)c(=O)n(Cc3ccc(F)cc3)n2)cc1F [Example 190, 4-dimethylaminomethyl-2-(4-fluorobenzyl)-6-(3-fluoro-4-methoxyphenyl)-2H-pyridazin-3-one] | 127 to 129 °C
COc1ccc(-c2cc(CN3CCNCC3)c(=O)n(Cc3ccc(F)cc3)n2)cc1F [Example 192, 2-(4-fluorobenzyl)-6-(3-fluoro-4-methoxyphenyl)-4-(1-piperazinyl)methyl-2H-pyridazin-3-one] | 142 to 143 °C
COc1ccc(-c2cc(CN)c(=O)n(Cc3ccc(F)cc3)n2)cc1F [Example 194, 4-aminomethyl-2-(4-fluorobenzyl)-6-(3-fluoro-4-methoxyphenyl)-2H-pyridazin-3-one] | 145 to 149 °C
COc1ccc(-c2cc(CN(C)C)c(=O)n(CCCc3ccc(F)cc3)n2)cc1F [Example 197, 4-dimethylaminomethyl-6-(3-fluoro-4-methoxyphenyl)-2-[3-(4-fluorophenyl)propyl]-2H-pyridazin-3-one] | 97 to 100 °C
COc1ccc(-c2cc(CN)c(=O)n(Cc3ccc(Cl)cc3)n2)cc1F [Example 205, 4-aminomethyl-2-(4-chlorobenzyl)-6-(3-fluoro-4-methoxyphenyl)-2H-pyridazin-3-one] | 128.5 to 131.4 °C
COc1ccc(-c2cc(CN3CCN(C)CC3)c(=O)n(CC=Cc3ccc(Cl)cc3)n2)cc1F [Example 209, 2-(4-chlorocinnamyl)-6-(3-fluoro-4-methoxyphenyl)-4-(4-methyl-1-piperazinyl)methyl-2H-pyridazin-3-one] | 123.9 to 125.5 °C
Cc1cc(-c2cc(CN3CCN(C)CC3)c(=O)n(Cc3ccc(Cl)cc3)n2)ccc1F [Example 222, 2-(4-chlorobenzyl)-6-(4-fluoro-3-methylphenyl)-4-(4-methyl-1-piperazinyl)methyl-2H-pyridazin-3-one] | 133.3 to 133.8 °C
Cc1cc(-c2cc(CCCN)c(=O)n(Cc3ccccc3Cl)n2)ccc1F [Example 227, 4-(3-aminopropyl)-2-(2-chlorobenzyl)-6-(4-fluoro-3-methylphenyl)-2H-pyridazin-3-one] | 80 to 85 °C
COc1ccc(-c2cc(CCCN3CCN(C)CC3)c(=O)n(Cc3ccc(F)cc3)n2)cc1F [Example 239, 2-(4-fluorobenzyl)-6-(3-fluoro-4-methoxyphenyl)-4-[3-(4-methyl-1-piperazinyl)propyl]-2H-pyridazin-3-one] | 108 to 109 °C

The remaining lines, values ahead:

melting point | Compound
201.3 to 201.9 °C | Cc1cc(-c2cc(CN(C)C)c(=O)n(CC=Cc3ccc(Cl)cc3)n2)ccc1F.Cl
224.5 to 228 °C | CC(C)Cn1nc(-c2ccc(S(C)(=O)=O)cc2)cc(CN2CCN(C)CC2)c1=O.Cl.Cl
221.4 to 223.3 °C | CC(C)Cn1nc(-c2ccc(S(C)(=O)=O)cc2)cc(CN(C)C)c1=O.Cl
201.9 to 206.4 °C | Cc1cc(-c2cc(CN)c(=O)n(Cc3ccccc3Cl)n2)ccc1F.Cl
246.5 to 248.5 °C | Cc1ccc(-c2cc(CN(C)C)c(=O)n(CC(C)C)n2)cc1F.Cl [Example 8, 4-dimethylaminomethyl-6-(3-fluoro-4-methylphenyl)-2-isobutyl-2H-pyridazin-3-one hydrochloride]
169.1 to 170.7 °C | CNCc1cc(-c2ccc(OC)c(F)c2)nn(CC2CC2)c1=O [Example 9, 2-cyclopropylmethyl-6-(3-fluoro-4-methoxyphenyl)-4-methylaminomethyl-2H-pyridazin-3-one]
74.9 to 77.9 °C | Cc1ccc(-c2cc(CN)c(=O)n(CC(C)C)n2)cc1 [Example 50, 4-aminomethyl-2-isobutyl-6-(4-methylphenyl)-2H-pyridazin-3-one]
216.8 to 218.4 °C | CSc1ccc(-c2cc(CN(C)C)c(=O)n(CC(C)C)n2)cc1.Cl [Example 161, 4-dimethylaminomethyl-2-isobutyl-6-[4-(methylthio)phenyl]-2H-pyridazin-3-one hydrochloride]
82 to 84 °C | COc1ccc(-c2cc(CN)c(=O)n(CCCc3ccc(F)cc3)n2)cc1F [Example 200, 4-aminomethyl-6-(3-fluoro-4-methoxyphenyl)-2-[3-(4-fluorophenyl)propyl]-2H-pyridazin-3-one]
95.3 to 96.7 °C | COc1ccc(-c2cc(CN(C)C)c(=O)n(Cc3ccc(Cl)cc3)n2)cc1F [Example 203, 2-(4-chlorobenzyl)-4-dimethylaminomethyl-6-(3-fluoro-4-methoxyphenyl)-2H-pyridazin-3-one]
135.4 to 136 °C | COc1ccc(-c2cc(CN3CCN(C)CC3)c(=O)n(Cc3ccc(F)c(F)c3)n2)cc1F [Example 207, 2-(3,4-difluorobenzyl)-6-(3-fluoro-4-methoxyphenyl)-4-(4-methyl-1-piperazinyl)methyl-2H-pyridazin-3-one]
129.9 to 130.4 °C | COc1ccc(-c2cc(CN(C)C)c(=O)n(Cc3ccc(F)c(F)c3)n2)cc1F [Example 208, 2-(3,4-difluorobenzyl)-4-dimethylaminomethyl-6-(3-fluoro-4-methoxyphenyl)-2H-pyridazin-3-one]
149.7 to 150.9 °C | Cc1cc(-c2cc(CN3CCN(C)CC3)c(=O)n(Cc3ccccc3Cl)n2)ccc1F [Example 224, 2-(2-chlorobenzyl)-6-(4-fluoro-3-methylphenyl)-4-(4-methyl-1-piperazinyl)methyl-2H-pyridazin-3-one]
97.6 to 102.2 °C | Cc1cc(-c2cc(CN)c(=O)n(Cc3ccccc3Cl)n2)ccc1F [Example 237, 4-aminomethyl-2-(2-chlorobenzyl)-6-(4-fluoro-3-methylphenyl)-2H-pyridazin-3-one]
